Reference: ChEMBL document CHEMBL4507291 (2021)

Experiments:
[1] = molecular target: CDK9/Cyclin K (Homo sapiens) (UniProt P50750+O75909); experiment: CDK9/cyclin K Kinase screen; assay type: protein-complex assay; settings: Compound concentration 1.0 uM
[2] = molecular target: Dual specificity tyrosine-phosphorylation-regulated kinase 3 (Homo sapiens) (UniProt O43781); experiment: DYRK3 Kinase screen; settings: Compound concentration 1.0 uM
[3] = system: Mast/stem cell growth factor receptor Kit (Homo sapiens), P10721 [V654A]; experiment: KIT V654A Kinase screen; settings: Compound concentration 1.0 uM
[4] = molecular target: RAC-gamma serine/threonine-protein kinase (Homo sapiens) (UniProt Q9Y243); experiment: AKT3 (PKB gamma) Kinase screen; settings: Compound concentration 1.0 uM
Caspase-3 (Homo sapiens) = Caspase-3 (Homo sapiens) (UniProt P42574); experiment: Peptidase, CASP3 (Caspase 3) Eurofins-Panlabs enzyme assay; settings: Compound concentration 10.0 uM
[5] = molecular target: D(2) dopamine receptor (Homo sapiens) (UniProt P14416); settings: Compound concentration 10.0 uM
[6] = molecular target: Proto-oncogene tyrosine-protein kinase Src (Homo sapiens) (UniProt P12931); experiment: SRC Kinase screen; settings: Compound concentration 1.0 uM
[7] = molecular target: MAP/microtubule affinity-regulating kinase 3 (Homo sapiens) (UniProt P27448); experiment: Protein Serine/Threonine Kinase, MARK3 Eurofins-Panlabs enzyme assay; settings: Compound concentration 10.0 uM
[8] = molecular target: Histamine H4 receptor (Homo sapiens) (UniProt Q9H3N8); experiment: Histamine H4 Eurofins-Panlabs radioligand binding assay; settings: Compound concentration 10.0 uM
[9] = molecular target: Vasopressin V1a receptor (Homo sapiens) (UniProt P37288); settings: Compound concentration 10.0 uM
[10] = molecular target: Myosin light chain kinase 2, skeletal/cardiac muscle (Homo sapiens) (UniProt Q9H1R3); experiment: MLCK (MLCK2) Kinase screen; settings: Compound concentration 1.0 uM
[11] = molecular target: CDK9/cyclin T1 (Homo sapiens) (UniProt O60563+P50750); experiment: CDK9/cyclin T1 Kinase screen; assay type: protein-complex assay; settings: Compound concentration 1.0 uM
[12] = molecular target: T1, Serine/threonine-protein kinase D2 (Homo sapiens) (UniProt Q9BZL6); experiment: PRKD2 (PKD2) Kinase screen; settings: Compound concentration 1.0 uM
T1 sequence (whole entry): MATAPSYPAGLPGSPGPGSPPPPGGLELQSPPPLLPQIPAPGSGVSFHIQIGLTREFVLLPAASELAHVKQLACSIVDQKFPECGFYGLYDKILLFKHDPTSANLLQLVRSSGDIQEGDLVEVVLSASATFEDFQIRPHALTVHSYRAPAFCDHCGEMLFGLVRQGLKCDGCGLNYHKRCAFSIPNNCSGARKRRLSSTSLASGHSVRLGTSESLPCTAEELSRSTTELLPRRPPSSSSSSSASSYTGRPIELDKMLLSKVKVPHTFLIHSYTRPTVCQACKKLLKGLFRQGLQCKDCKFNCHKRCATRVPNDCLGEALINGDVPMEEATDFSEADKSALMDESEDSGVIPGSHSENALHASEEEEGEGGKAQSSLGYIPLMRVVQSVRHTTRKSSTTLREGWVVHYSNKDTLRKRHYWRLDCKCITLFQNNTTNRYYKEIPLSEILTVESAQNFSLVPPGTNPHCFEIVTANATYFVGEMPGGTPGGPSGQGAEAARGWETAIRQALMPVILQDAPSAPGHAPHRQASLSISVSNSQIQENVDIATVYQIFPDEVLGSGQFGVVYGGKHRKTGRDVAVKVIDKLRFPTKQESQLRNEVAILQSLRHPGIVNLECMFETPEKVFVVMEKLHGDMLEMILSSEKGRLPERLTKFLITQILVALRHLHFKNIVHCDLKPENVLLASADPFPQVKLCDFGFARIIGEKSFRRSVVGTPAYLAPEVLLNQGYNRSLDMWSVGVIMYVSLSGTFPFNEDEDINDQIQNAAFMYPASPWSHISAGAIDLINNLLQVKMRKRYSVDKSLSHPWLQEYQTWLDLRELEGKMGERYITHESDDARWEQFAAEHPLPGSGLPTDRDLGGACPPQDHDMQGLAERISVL

[13] = molecular target: Receptor tyrosine-protein kinase erbB-4 (Homo sapiens) (UniProt Q15303); experiment: ERBB4 (HER4) Kinase screen; settings: Compound concentration 1.0 uM
[14] = molecular target: T2, Mitogen-activated protein kinase 13 (Homo sapiens) (UniProt O15264); experiment: MAPK13 (p38 delta) Kinase screen; settings: Compound concentration 1.0 uM
T2 sequence (whole entry): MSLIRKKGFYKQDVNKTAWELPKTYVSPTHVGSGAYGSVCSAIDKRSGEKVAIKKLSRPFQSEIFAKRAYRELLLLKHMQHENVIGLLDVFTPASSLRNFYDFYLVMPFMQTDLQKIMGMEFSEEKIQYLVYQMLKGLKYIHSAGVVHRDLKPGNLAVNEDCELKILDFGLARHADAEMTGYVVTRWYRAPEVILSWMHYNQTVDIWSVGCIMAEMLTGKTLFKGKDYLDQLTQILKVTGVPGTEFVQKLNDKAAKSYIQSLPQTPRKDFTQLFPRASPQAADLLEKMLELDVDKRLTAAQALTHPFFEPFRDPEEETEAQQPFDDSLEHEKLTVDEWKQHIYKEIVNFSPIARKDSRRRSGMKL

[15] = molecular target: Protein-tyrosine kinase 6 (Homo sapiens) (UniProt Q13882); experiment: PTK6 (Brk) Kinase screen; settings: Compound concentration 1.0 uM
[16] = molecular target: T3, Aurora kinase C (Homo sapiens) (UniProt Q9UQB9); experiment: AURKC (Aurora C) Kinase screen; settings: Compound concentration 1.0 uM
T3 sequence (whole entry): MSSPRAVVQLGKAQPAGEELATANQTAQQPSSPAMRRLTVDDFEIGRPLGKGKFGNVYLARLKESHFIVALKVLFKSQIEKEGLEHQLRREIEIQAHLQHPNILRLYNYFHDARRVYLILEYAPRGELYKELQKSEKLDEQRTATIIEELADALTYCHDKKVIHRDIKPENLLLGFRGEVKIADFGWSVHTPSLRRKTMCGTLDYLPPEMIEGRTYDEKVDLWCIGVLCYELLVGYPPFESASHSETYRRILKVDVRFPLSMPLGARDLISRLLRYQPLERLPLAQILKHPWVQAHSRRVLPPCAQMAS

[17] = molecular target: G protein-coupled receptor kinase 5 (Homo sapiens) (UniProt P34947); experiment: GRK5 Kinase screen; settings: Compound concentration 1.0 uM
[18] = molecular target: Cannabinoid receptor 2 (Homo sapiens) (UniProt P34972)
[19] = molecular target: Serine/threonine-protein kinase MRCK alpha (Homo sapiens) (UniProt Q5VT25); experiment: CDC42 BPA (MRCKA) Kinase screen; settings: Compound concentration 1.0 uM
[20] = molecular target: Protein kinase C delta type (Homo sapiens) (UniProt Q05655); experiment: PRKCD (PKC delta) Kinase screen; settings: Compound concentration 1.0 uM
[21] = molecular target: Ephrin type-A receptor 4 (Homo sapiens) (UniProt P54764); experiment: EPHA4 Kinase screen; settings: Compound concentration 1.0 uM
[22] = molecular target: Tyrosine-protein kinase receptor UFO (Homo sapiens) (UniProt P30530); experiment: AXL Kinase screen; settings: Compound concentration 1.0 uM
[23] = molecular target: Serine/threonine-protein kinase PAK 1 (Homo sapiens) (UniProt Q13153); experiment: PAK1 Kinase screen; settings: Compound concentration 1.0 uM
[24] = molecular target: SRSF protein kinase 1 (Homo sapiens) (UniProt Q96SB4); experiment: SRPK1 Kinase screen; settings: Compound concentration 1.0 uM
[25] = molecular target: Tyrosine-protein kinase SYK (Homo sapiens) (UniProt P43405); experiment: SYK Kinase screen; settings: Compound concentration 1.0 uM
[26] = molecular target: Tyrosine-protein kinase FRK (Homo sapiens) (UniProt P42685); experiment: FRK (PTK5) Kinase screen; settings: Compound concentration 1.0 uM

Measured: inhibition

Sequence of Cannabinoid receptor 2 (Homo sapiens) (P34972 whole entry): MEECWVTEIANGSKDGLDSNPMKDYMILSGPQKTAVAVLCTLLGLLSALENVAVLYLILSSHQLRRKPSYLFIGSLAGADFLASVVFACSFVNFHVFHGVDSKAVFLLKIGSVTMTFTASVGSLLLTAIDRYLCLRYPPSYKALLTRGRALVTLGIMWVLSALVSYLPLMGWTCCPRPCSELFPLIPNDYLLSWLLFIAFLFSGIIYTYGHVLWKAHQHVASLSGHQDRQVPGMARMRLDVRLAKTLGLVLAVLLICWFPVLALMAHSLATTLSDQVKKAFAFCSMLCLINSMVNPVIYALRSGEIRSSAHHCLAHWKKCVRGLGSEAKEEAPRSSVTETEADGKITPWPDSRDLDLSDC
Sequence of Mast/stem cell growth factor receptor Kit (Homo sapiens), P10721 [V654A] (P10721 whole entry V654A): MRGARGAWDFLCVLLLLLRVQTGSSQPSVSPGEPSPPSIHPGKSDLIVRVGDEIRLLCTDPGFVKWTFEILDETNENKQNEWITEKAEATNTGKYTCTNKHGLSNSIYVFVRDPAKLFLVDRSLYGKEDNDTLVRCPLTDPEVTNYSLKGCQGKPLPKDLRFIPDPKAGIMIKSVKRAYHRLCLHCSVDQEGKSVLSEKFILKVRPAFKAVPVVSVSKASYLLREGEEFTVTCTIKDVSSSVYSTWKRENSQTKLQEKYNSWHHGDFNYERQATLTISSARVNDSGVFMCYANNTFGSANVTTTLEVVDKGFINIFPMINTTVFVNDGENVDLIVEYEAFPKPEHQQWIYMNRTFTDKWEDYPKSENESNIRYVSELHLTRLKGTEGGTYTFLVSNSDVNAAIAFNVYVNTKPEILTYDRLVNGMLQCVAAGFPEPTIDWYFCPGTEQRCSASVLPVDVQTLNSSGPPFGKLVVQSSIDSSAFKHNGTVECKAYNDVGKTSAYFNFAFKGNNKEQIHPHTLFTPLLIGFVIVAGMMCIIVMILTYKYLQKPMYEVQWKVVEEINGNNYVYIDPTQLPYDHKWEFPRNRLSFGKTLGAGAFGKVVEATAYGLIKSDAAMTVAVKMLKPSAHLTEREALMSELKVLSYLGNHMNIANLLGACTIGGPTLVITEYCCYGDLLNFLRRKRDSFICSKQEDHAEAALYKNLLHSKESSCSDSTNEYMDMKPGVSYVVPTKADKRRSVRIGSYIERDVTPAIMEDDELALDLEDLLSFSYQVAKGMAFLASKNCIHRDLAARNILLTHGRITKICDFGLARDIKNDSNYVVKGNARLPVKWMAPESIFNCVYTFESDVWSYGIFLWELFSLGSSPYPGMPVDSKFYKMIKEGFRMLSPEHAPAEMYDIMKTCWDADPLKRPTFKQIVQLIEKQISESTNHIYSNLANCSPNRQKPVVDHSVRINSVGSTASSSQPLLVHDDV
Sequence of Myosin light chain kinase 2, skeletal/cardiac muscle (Homo sapiens) (Q9H1R3 whole entry): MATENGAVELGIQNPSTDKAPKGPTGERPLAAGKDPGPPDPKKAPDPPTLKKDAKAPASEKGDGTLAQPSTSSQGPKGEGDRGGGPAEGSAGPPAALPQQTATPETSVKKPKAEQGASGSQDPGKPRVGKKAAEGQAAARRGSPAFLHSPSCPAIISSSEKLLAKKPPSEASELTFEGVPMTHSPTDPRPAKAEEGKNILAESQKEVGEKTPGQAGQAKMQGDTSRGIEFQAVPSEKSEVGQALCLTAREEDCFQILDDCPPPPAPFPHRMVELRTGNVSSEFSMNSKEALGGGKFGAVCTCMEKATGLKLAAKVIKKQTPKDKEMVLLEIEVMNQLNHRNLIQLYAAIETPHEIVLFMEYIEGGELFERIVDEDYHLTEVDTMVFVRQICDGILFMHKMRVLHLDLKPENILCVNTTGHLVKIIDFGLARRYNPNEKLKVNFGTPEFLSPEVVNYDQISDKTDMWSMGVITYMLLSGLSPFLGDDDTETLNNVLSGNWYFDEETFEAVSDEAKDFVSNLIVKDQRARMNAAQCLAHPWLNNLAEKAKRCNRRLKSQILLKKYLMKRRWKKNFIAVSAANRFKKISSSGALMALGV
Sequence of RAC-gamma serine/threonine-protein kinase (Homo sapiens) (Q9Y243 whole entry): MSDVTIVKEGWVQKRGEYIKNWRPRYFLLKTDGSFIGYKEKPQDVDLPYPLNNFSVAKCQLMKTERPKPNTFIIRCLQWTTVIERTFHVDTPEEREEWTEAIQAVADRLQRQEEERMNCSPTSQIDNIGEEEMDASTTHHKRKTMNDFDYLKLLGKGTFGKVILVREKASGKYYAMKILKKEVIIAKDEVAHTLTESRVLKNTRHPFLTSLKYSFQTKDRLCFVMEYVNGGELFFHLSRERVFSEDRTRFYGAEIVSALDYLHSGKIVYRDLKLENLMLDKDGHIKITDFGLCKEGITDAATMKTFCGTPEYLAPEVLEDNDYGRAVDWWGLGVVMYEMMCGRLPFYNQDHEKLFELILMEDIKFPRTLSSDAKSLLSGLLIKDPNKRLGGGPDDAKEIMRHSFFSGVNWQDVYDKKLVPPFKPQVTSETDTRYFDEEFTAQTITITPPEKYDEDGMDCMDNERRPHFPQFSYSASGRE
Sequence of Protein kinase C delta type (Homo sapiens) (Q05655 whole entry, looked up): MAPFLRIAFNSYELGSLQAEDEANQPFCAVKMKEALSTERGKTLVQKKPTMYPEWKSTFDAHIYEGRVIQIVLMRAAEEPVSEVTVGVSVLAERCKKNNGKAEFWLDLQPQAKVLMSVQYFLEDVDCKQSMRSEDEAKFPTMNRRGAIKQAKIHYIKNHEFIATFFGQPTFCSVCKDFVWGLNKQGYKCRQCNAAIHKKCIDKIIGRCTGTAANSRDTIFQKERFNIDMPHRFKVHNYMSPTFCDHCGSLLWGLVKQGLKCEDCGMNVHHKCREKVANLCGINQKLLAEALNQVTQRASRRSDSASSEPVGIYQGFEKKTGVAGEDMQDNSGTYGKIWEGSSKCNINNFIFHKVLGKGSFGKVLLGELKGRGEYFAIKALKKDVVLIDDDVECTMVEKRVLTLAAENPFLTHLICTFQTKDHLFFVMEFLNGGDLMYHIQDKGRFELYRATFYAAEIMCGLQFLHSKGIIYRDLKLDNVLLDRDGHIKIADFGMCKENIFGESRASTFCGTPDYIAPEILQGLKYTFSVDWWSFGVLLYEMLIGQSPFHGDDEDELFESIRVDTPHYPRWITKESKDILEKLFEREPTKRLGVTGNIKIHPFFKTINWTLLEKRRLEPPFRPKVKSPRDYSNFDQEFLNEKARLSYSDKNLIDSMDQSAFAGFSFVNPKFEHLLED
Sequence of Dual specificity tyrosine-phosphorylation-regulated kinase 3 (Homo sapiens) (O43781 whole entry): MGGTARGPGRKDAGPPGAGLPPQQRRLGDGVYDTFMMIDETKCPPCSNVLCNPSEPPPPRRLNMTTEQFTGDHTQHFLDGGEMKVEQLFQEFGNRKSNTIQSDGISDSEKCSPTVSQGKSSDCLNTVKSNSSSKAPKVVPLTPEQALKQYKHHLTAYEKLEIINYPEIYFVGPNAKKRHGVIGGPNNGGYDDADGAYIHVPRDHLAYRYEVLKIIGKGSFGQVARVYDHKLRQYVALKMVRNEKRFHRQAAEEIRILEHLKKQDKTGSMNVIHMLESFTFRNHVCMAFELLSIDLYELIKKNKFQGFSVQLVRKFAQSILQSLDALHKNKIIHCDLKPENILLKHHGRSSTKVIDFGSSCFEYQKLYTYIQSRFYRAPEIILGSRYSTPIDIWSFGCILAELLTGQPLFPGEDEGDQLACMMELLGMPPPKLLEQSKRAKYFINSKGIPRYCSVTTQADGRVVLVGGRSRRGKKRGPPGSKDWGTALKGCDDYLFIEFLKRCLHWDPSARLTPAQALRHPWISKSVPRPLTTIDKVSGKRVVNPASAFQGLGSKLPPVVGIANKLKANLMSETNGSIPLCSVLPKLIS
Sequence of Histamine H4 receptor (Homo sapiens) (Q9H3N8 whole entry): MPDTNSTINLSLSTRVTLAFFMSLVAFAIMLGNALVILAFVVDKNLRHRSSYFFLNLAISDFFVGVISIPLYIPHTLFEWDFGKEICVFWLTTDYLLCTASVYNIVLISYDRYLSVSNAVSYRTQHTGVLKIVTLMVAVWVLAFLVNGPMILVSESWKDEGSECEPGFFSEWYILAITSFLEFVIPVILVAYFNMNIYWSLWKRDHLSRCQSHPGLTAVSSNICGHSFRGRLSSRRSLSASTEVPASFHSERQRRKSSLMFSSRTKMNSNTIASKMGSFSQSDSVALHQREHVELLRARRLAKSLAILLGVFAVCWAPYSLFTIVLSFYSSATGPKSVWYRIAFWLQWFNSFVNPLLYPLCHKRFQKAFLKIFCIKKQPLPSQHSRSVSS
Sequence of MAP/microtubule affinity-regulating kinase 3 (Homo sapiens) (P27448 whole entry, looked up): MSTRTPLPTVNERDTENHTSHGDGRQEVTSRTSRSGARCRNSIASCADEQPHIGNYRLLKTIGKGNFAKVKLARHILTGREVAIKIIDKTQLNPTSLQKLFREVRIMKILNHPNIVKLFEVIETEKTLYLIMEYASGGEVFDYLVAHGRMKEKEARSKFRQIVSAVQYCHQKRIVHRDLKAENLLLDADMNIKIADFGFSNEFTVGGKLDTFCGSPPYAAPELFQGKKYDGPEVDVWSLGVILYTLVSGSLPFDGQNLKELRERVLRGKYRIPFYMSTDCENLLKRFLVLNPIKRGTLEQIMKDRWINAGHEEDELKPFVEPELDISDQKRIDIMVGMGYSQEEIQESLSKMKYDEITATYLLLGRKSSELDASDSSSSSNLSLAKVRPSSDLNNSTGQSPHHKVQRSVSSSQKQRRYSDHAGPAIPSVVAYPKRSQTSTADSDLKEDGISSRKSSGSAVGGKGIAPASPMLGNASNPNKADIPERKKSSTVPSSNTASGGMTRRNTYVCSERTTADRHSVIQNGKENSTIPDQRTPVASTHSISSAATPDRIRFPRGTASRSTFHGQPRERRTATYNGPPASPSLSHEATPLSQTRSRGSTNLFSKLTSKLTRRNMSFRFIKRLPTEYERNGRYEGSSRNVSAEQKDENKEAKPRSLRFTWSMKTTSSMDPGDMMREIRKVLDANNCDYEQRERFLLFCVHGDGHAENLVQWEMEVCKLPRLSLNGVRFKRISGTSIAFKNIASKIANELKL

C[C@@H]1CN(c2cc(-c3n[nH]c4ccc(OC5(C)CC5)cc34)ncn2)C[C@H](C)O1 [MLi-2]
inactive: [1] -2.24% | [2] 2.54% | [3] 1.06% | [4] 7.75% | Caspase-3 (Homo sapiens) 12% | [5] 11% | [6] 4.97% | [7] 11% | [8] -4% | [9] -9% | [10] 1.73% | [11] 11.3% | [12] 19% | [13] 11.9% | [14] 4.25% | [15] 2.74% | [16] 1.85% | [17] 0.0771% | [18]; Compound concentration 3.0 uM 2% | [18]; Compound concentration 10.0 uM 2% | [19] 2.46% | [20] 3.65% | [21] 4.82% | [22] 4.79% | [23] 6.76% | [24] 6.15% | [25] 2.84% | [26] 7.13%
